The source of these data is article PMC4555095, “Inhibitory effects of magnolol and honokiol on human calcitonin aggregation” (Scientific Reports, 2015).

This experiment has as its target T1, Human calcitonin (hCT) (Homo sapiens, UniProt P01258).
T1 construct: gene CALCA; mature 32-residue calcitonin peptide cut from the calcitonin precursor; disulfide Cys-1/Cys-7, C terminus amidated; no tag
T1 sequence (P01258 85-116 limits assumed): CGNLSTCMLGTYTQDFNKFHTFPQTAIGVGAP
In words: isothermal titration calorimetry. Format: binding. As to conditions: read-out: Kb. In general terms: In ITC the heat of successive injections is recorded.

Take `C=CCc1ccc(O)c(-c2ccc(O)c(CC=C)c2)c1` [honokiol]: the Kd was 6.49 µM. In the case of `C=CCc1ccc(O)c(-c2cc(CC=C)ccc2O)c1` [magnolol] it was 2.62 µM.
